Data as given in US9370189B2, “Controlling Pseudomonas aeruginosa persister cells with GM-CSF” (priority 2012, dated 2016).

Tests used:
[1] = tested on: membrane fractions of P. aeruginosa; assay: GM-CSF binding to non-denatured cellular fractions (non-denatured PAGE, Western blotting); set-up: species or system Pseudomonas aeruginosa; details: P. aeruginosa fractions incubated with GM-CSF, Western blotting (FIG. 22)
Procedure: Cell fractionation was done as described by George et al. (1986) with some modification. Briefly, cell pellets from stationary phase PAO1 were suspended in 1 ml of PBS buffer (pH7.2) containing 0.2 mg/mL lysozyme, protease inhibitor cocktail (Roche), chilled on ice, and sonicated (20 bursts, 10 s each at 70 W) with a Sonicator Q500 (Qsonica). The unbroken cells and debris were removed by centrifugation at 15,600×g for 5 min at 4° C. The supernatant was transferred to a 1.5 mL centrifuge tube, and the cell membranes were precipitated from the supernatant by centrifugation in a microcentrifuge at 15,600×g for 1 hour at 4° C. The supernatant was saved as cytoplasm fraction. To further separate inner and outer membrane proteins, the membrane pellets were thoroughly suspended in 0.1 ml of PBS buffer supplemented with 1% Sarkosyl by repeated pipetting. Following incubation for 30 minutes with intermittent mixing at room temperature, the suspension was centrifuged at 15,600×g for 1 hour at 4° C. […]
Different cellular components (30 μL) from P. aeruginosa were mixed with GM-CSF (20 ng) and incubated at room temperature for 2 hours. […] The separated samples were then subjected to Western blotting and detected by Human GM-CSF Monoclonal Antibody as described in whole cell binding assay.

P. aeruginosa PDO300 = assay: Effect of GM-CSF on planktonic PDO300 cells (total viable cells and persisters) at exponential phase, alone and with antibiotic; assay type: cell-based, Pseudomonas aeruginosa; details: for % change in avg. CFU/mL by GM-CSF (compared to GM-CSF free control) With 50 μg/mL Cip / % change in avg. CFU/mL by GM-CSF (compared to GM-CSF free control) With 50 μg/mL Tet / % change in avg. CFU/mL by GM-CSF (compared to GM-CSF free control) With 50 μg/mL Tob / % change in avg. CFU/mL by GM-CSF (compared to GM-CSF free control) With 200 μg/mL Gen: PDO300 exponential phase, 0.17 pM GM-CSF; for % change in avg. CFU/ml after adding factor + CIP / % change in avg. CFU/ml after adding factor + TET / % change in avg. CFU/ml after adding factor + TOB / % change in avg. CFU/ml after adding factor + GEN / average CFU/ml of persisters reduced by / average CFU/ml of total viable cells reduced by: planktonic PDO300; for % change in avg. CFU/ml after adding factor + CIP: 2.43 pg/mL GM-CSF with 50 μg/mL ciprofloxacin; for % change in avg. CFU/ml after adding factor + TET: 2.43 pg/mL GM-CSF with 50 μg/mL tetracycline; for % change in avg. CFU/ml after adding factor + TOB: 2.43 pg/mL GM-CSF with 50 μg/mL tobramycin; for % change in avg. CFU/ml after adding factor + GEN: 2.43 pg/mL GM-CSF with 200 μg/ml gentamicin; for average CFU/ml of persisters reduced by / average CFU/ml of total viable cells reduced by: reduction
Procedure: This Example describes the treatment of planktonic P. aeruginosa PAO1, PDO300 and Escherichia coli K12, with GM-CSF introduced directly or together with an antibiotic to test the synergy. All experiments were conducted with cells harvested from exponential phase subcultures with an optical density at 600 nm (OD600) of 0.3 to 0.4.
In brief, after preparing an overnight culture of the tested strain in 25 ml LB medium, a subculture was prepared with an OD600 of 0.01 in 50 mL LB medium. The subculture was incubated at 37° C. with shaking at 200 rpm for 3-4 h, till an OD600 of 0.3 to 0.4 was reached. The exponential phase subculture was then divided equally into two centrifuge tubes, each containing 25 mL of the subculture. The subcultures were washed twice with 0.85% NaCl buffer by vortexing and then centrifuging at 4° C., 8000 rpm for 10 min each time. The washed subcultures/cells were resuspended in 25 mL 0.85% NaCl buffer and vortexed gently for 1 min. One of the tubes of subculture was selected for isolation of persisters by adding 200 μg/mL ciprofloxacin (for PAO1 and PDO300 strains) or 100 μg/mL ampicillin (for E. coli K12 strain). After adding the antibiotic for persister isolation, the subculture was incubated at 37° C., shaking at 200 rpm for 3.5 h.
To test the effects of GM-CSF on viability of persisters, the second tube was used to quantify the total number of viable cells and 1 mL of the washed persister cells was divided into 6 microcentrifuge tubes; 3 were control and the other 3 were GM-CSF treatment samples. In the treatment samples, GM-CSF was added to a concentration of 2.43 pg/mL (or 0.17 pM), the same as found in healthy human bodies. The control samples were supplemented with the same concentration of PBS and BSA as present in 2.43 pg/mL (or 0.17 pM) GM-CSF samples.
After incubating at 37° C. for 1 h with shaking at 200 rpm, the samples were plated on LB agar plates (15 g/L bacto agar) using drop plate method. The agar plates were then incubated for 24 h at 37° C. to count the total number of persister cells and understand the effect of 0.17 pM GM-CSF on the viability of persister cells.
To test the synergy with antibiotics, the above samples were then incubated at 37° C. for 3.5 h with shaking at 200 rpm after adding the selected antibiotic. After 3.5 h, the CFU of samples was quantified in the same way to understand if there is any synergy between GM-CSF and antibiotic. Similar treatments were performed on the total population in exponential phase as well. Apart from exponential phase, the synergistic effects of GM-CSF with antibiotics on total viable cells and persisters were also evaluated at stationary phase but PBS buffer (pH=7.4) was used in the experiments instead of 0.85% NaCl solution. Moreover, the 1 h and 3.5 h treatments were performed as co-treatments.

[2] = 2.43 pg/ml GM-CSF in the presence of 50 μg/mL ciprofloxacin
[3] = 2.43 pg/ml GM-CSF in the presence of 50 μg/mL tetracycline
[4] = 2.43 pg/ml GM-CSF in the presence of 50 μg/mL tobramycin
[5] = 2.43 pg/ml GM-CSF in the presence of 200 μg/mL gentamicin

In the case of “GM-CSF: granulocyte macrophage-colony stimulating factor, a cytokine secreted by macrophages; recombinant human GM-CSF (R&D systems) in binding tests”, the “binding to cellular components” value [1] is reported as “preferentially binds to membrane fractions”, the “% change in avg. CFU/mL by GM-CSF (compared to GM-CSF free control) With 50 μg/mL Cip” value (P. aeruginosa PDO300; persisters) is reported as −22.2% and the “% change in avg. CFU/mL by GM-CSF (compared to GM-CSF free control) With 50 μg/mL Tet” value (P. aeruginosa PDO300; persisters) is reported as −46.2%. The “% change in avg. CFU/mL by GM-CSF (compared to GM-CSF free control) With 50 μg/mL Tob” value (P. aeruginosa PDO300; persisters) was −80.0%, the “% change in avg. CFU/mL by GM-CSF (compared to GM-CSF free control) With 200 μg/mL Gen” value (P. aeruginosa PDO300; persisters) was −50.0% and the “% change in avg. CFU/ml after adding factor + CIP” value (P. aeruginosa PDO300; persisters) was −27.78%. The “% change in avg. CFU/ml after adding factor + TET” value (P. aeruginosa PDO300; persisters) was −32.69%, the “% change in avg. CFU/ml after adding factor + TOB” value (P. aeruginosa PDO300; persisters) was −75.86% and the “% change in avg. CFU/ml after adding factor + GEN” value (P. aeruginosa PDO300; persisters) was −50.94%. The “average CFU/ml of persisters reduced by” value (P. aeruginosa PDO300; [2]) was 27.78%, the “average CFU/ml of total viable cells reduced by” value (P. aeruginosa PDO300; [2]) was 25.00% and the “average CFU/ml of persisters reduced by” value (P. aeruginosa PDO300; [3]) was 32.69%. For the same substance, the “average CFU/ml of total viable cells reduced by” value (P. aeruginosa PDO300; [3]) was 12.50%, the “average CFU/ml of persisters reduced by” value (P. aeruginosa PDO300; [4]) was 75.86% and the “average CFU/ml of total viable cells reduced by” value (P. aeruginosa PDO300; [4]) was 8.33%. The “average CFU/ml of persisters reduced by” value (P. aeruginosa PDO300; [5]) was 50.94%, the “average CFU/ml of total viable cells reduced by” value (P. aeruginosa PDO300; [5]) was 20.00% and the “% change in avg. CFU/mL by GM-CSF (compared to GM-CSF free control) With 50 μg/mL Cip” value (P. aeruginosa PDO300; total viable cells) was −25.0%. The “% change in avg. CFU/mL by GM-CSF (compared to GM-CSF free control) With 50 μg/mL Tet” value (P. aeruginosa PDO300; total viable cells) was −12.5%, the “% change in avg. CFU/mL by GM-CSF (compared to GM-CSF free control) With 50 μg/mL Tob” value (P. aeruginosa PDO300; total viable cells) was −8.3% and the “% change in avg. CFU/mL by GM-CSF (compared to GM-CSF free control) With 200 μg/mL Gen” value (P. aeruginosa PDO300; total viable cells) was −20.0%. The “% change in avg. CFU/ml after adding factor + CIP” value (P. aeruginosa PDO300; total viable cells) was −25.00%, the “% change in avg. CFU/ml after adding factor + TET” value (P. aeruginosa PDO300; total viable cells) was −12.50% and the “% change in avg. CFU/ml after adding factor + TOB” value (P. aeruginosa PDO300; total viable cells) was −8.33%. For the same substance, the “% change in avg. CFU/ml after adding factor + GEN” value (P. aeruginosa PDO300; total viable cells) was −20.00%.
